Assays:
[1] = tested on: normal NK cells expanded with K562-aAPC; experiment: drug sensitivity score (DSS) (DSS units); higher = more sensitive; extreme values may be limits of the assay; settings: 72 h; IL-2 2.5 ng/mL
Method: (§1)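 Drug sensitivity and resistance testing on K562-aAPC-expanded normal NK cells: 5 concentrations (10-fold steps over a 10,000-fold range), 72 h at 37 °C, viability by CellTiter-Glo normalised to DMSO and benzethonium chloride controls; DSS from the fitted curve.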

YT (IL-2 2.5 ng/mL) [2] = experiment: as above; settings: 72 h
IMC-1 (IL-2 20 ng/mL) [3] = experiment: as above; settings: 72 h
NK-92 (IL-2 2.5 ng/mL) [4] = experiment: as above; settings: 72 h
[5] = tested on: normal primary NK cells, pool 1 (3 donors), resting (IL-2 0 ng/mL); experiment: as above; settings: 72 h
NK-YS (IL-2 2.5 ng/mL) [6] = experiment: as above; settings: 72 h
KAI3 (IL-2 2.5 ng/mL) [7] = experiment: as above; settings: 72 h
SNK-6 (IL-2 2.5 ng/mL) [8] = experiment: as above; settings: 72 h
[9] = tested on: normal primary NK cells, pool 1 (3 donors) (IL-2 2.5 ng/mL); experiment: as above; settings: 72 h
KHYG-1 (IL-2 2.5 ng/mL) [10] = experiment: as above; settings: 72 h
DERL-7 (IL-2 2.5 ng/mL) [11] = experiment: as above; settings: 72 h
NKL (IL-2 2.5 ng/mL) [12] = experiment: as above; settings: 72 h
[13] = tested on: normal primary NK cells, pool 3 (3 donors) (IL-2 2.5 ng/mL); experiment: as above; settings: 72 h
[14] = tested on: normal primary NK cells, pool 2 (3 donors) (IL-2 2.5 ng/mL); experiment: as above; settings: 72 h
[15] = tested on: normal NK cells expanded with K562-aAPC; experiment: percent inhibition of viability; higher = more inhibition; settings: 72 h, IL-2 2.5 ng/mL
Method: as §1

YT (IL-2 2.5 ng/mL) [16] = experiment: as above; settings: 72 h
IMC-1 (IL-2 20 ng/mL) [17] = experiment: as above; settings: 72 h
NK-92 (IL-2 2.5 ng/mL) [18] = experiment: as above; settings: 72 h
[19] = tested on: normal primary NK cells, pool 1 (3 donors), resting (IL-2 0 ng/mL); experiment: as above; settings: 72 h
NK-YS (IL-2 2.5 ng/mL) [20] = experiment: as above; settings: 72 h
KAI3 (IL-2 2.5 ng/mL) [21] = experiment: as above; settings: 72 h
SNK-6 (IL-2 2.5 ng/mL) [22] = experiment: as above; settings: 72 h
[23] = tested on: normal primary NK cells, pool 1 (3 donors) (IL-2 2.5 ng/mL); experiment: as above; settings: 72 h
KHYG-1 (IL-2 2.5 ng/mL) [24] = experiment: as above; settings: 72 h
DERL-7 (IL-2 2.5 ng/mL) [25] = experiment: as above; settings: 72 h
NKL (IL-2 2.5 ng/mL) [26] = experiment: as above; settings: 72 h
[27] = tested on: normal primary NK cells, pool 3 (3 donors) (IL-2 2.5 ng/mL); experiment: as above; settings: 72 h
[28] = tested on: normal primary NK cells, pool 2 (3 donors) (IL-2 2.5 ng/mL); experiment: as above; settings: 72 h

C[C@@H]1CN(CC(=O)Nc2ccc3c(c2)Cc2cccc(-c4cc(=O)cc(N5CCOCC5)o4)c2S3)C[C@H](C)O1 (max concentration tested 25000 nM)
Settings	drug sensitivity score
DERL-7 (IL-2 2.5 ng/mL) [11]	6.89
IMC-1 (IL-2 20 ng/mL) [3]	5.86
KAI3 (IL-2 2.5 ng/mL) [7]	7.81
KHYG-1 (IL-2 2.5 ng/mL) [10]	8.65
NK-92 (IL-2 2.5 ng/mL) [4]	8.57
NK-YS (IL-2 2.5 ng/mL) [6]	6.02
NKL (IL-2 2.5 ng/mL) [12]	7.43
SNK-6 (IL-2 2.5 ng/mL) [8]	6.99
YT (IL-2 2.5 ng/mL) [2]	6.69
[1]	2.76
[5]	8.7
[9]	6.71
[13]	3.14
[14]	5.1

percent inhibition of viability [%]
Settings	2.5 nM	25 nM	250 nM	2500 nM	25000 nM
DERL-7 (IL-2 2.5 ng/mL) [25]	-2	-3.36	-4.44	13	85.2
IMC-1 (IL-2 20 ng/mL) [17]	-9.5	-5.69	-6.07	2.99	98.3
KAI3 (IL-2 2.5 ng/mL) [21]	5.88	0.49	-7.91	18.6	87.2
KHYG-1 (IL-2 2.5 ng/mL) [24]	-6.23	-8.72	-3.2	18.6	107
NK-92 (IL-2 2.5 ng/mL) [18]	-7.1	-15.1	-2.57	18.6	101
NK-YS (IL-2 2.5 ng/mL) [20]	-6.64	-9	-7.16	8.32	84.3
NKL (IL-2 2.5 ng/mL) [26]	-13.9	-22.8	-12.4	24.9	71
SNK-6 (IL-2 2.5 ng/mL) [22]	-10.7	-10.4	-8.37	9	100
YT (IL-2 2.5 ng/mL) [16]	-6.13	-5.84	-0.59	8.43	96.4
[15]	-9.26	-9.66	-11.6	-3.45	56.6
[19]	10.2	6.26	7.45	30.7	89
[23]	-8.95	-10.4	-7.4	10	91.3
[27]	-1.38	0.2	6.37	-0.76	59.3
[28]	-2.96	-5.92	1.66	7.62	69.8

Cc1ccc(C(=O)Nc2ccc(CN3CCN(C)CC3)c(C(F)(F)F)c2)cc1C#Cc1cnc2cccnn12 [Ponatinib] (max concentration tested 1000 nM)
Settings	drug sensitivity score
DERL-7 (IL-2 2.5 ng/mL) [11]	6.96
IMC-1 (IL-2 20 ng/mL) [3]	0
KAI3 (IL-2 2.5 ng/mL) [7]	6.4
KHYG-1 (IL-2 2.5 ng/mL) [10]	4.12
NK-92 (IL-2 2.5 ng/mL) [4]	2.11
NK-YS (IL-2 2.5 ng/mL) [6]	2.89
NKL (IL-2 2.5 ng/mL) [12]	8.25
SNK-6 (IL-2 2.5 ng/mL) [8]	0
YT (IL-2 2.5 ng/mL) [2]	7.33
[1]	3.2
[5]	8.02
[9]	5.73
[13]	2.66
[14]	3.94

percent inhibition of viability [%]
Settings	0.1 nM	1 nM	10 nM	100 nM	1000 nM
DERL-7 (IL-2 2.5 ng/mL) [25]	6.88	2.27	-1.37	18.4	74.2
IMC-1 (IL-2 20 ng/mL) [17]	-6.8	-0.24	-8.73	-1.9	-20.2
KAI3 (IL-2 2.5 ng/mL) [21]	-7.8	-3.54	0.07	10.6	83.4
KHYG-1 (IL-2 2.5 ng/mL) [24]	-7.12	-3.44	-4.86	3.85	65.1
NK-92 (IL-2 2.5 ng/mL) [18]	-13.8	-10.1	-23.1	-19.9	55
NK-YS (IL-2 2.5 ng/mL) [20]	-8.44	-4.74	-4.88	8.88	33.5
NKL (IL-2 2.5 ng/mL) [26]	-13.5	-11.6	1.83	36.3	70.1
SNK-6 (IL-2 2.5 ng/mL) [22]	11.2	4.03	-7.68	-18.6	-2.96
YT (IL-2 2.5 ng/mL) [16]	-6.26	-2.49	1.52	27	68.5
[15]	-4.16	-2.02	24.4	-11.2	70.4
[19]	1.74	25.3	15.3	19.4	60
[23]	2.63	6.68	12.1	7.51	81.5
[27]	-2.51	2.42	9.55	-20	65
[28]	2.87	-1.56	1.5	-2.42	75
